Experimental data as given in paper PMC11303535 (Nature Communications, 2024).

Columns and labels:
TRPV1 = settings: CHL at concentrations up to 250 μM; cited from earlier work
hTRPV1 = hTRPV1 (Homo sapiens, UniProt Q8NER1); assay: FLIPR calcium influx assay, hTRPV1 WT in HEK293T; assay type: cell-based; settings: 3.33 µM capsaicin
hTRPV1 S512F = hTRPV1 S512F (Homo sapiens, UniProt Q8NER1, S512F); assay: FLIPR calcium influx assay, hTRPV1 S512F mutant; assay type: cell-based; settings: also unresponsive to pH
Chain of hTRPV1 S512F (Q8NER1 whole entry S512F): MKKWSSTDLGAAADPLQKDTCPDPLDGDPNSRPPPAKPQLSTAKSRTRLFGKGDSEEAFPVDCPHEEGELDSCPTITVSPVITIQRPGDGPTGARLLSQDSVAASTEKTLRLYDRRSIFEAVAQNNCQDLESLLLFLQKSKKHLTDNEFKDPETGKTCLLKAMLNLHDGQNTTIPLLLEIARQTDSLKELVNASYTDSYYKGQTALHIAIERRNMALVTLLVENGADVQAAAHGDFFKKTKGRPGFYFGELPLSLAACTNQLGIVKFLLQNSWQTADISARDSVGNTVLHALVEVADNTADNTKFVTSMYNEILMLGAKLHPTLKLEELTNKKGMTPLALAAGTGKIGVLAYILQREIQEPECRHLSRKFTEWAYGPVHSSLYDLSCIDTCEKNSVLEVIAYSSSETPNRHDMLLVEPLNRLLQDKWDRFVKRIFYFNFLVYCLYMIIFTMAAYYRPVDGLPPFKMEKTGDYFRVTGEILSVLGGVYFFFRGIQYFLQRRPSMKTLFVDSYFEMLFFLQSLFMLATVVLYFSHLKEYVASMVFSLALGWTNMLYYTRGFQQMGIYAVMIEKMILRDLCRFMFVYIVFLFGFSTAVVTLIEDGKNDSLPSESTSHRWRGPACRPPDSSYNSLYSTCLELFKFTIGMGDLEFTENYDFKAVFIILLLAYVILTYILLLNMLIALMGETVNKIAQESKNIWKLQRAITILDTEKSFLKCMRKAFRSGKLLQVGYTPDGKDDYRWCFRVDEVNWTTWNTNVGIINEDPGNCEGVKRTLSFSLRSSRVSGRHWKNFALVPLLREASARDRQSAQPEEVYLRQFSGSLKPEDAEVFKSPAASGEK

Chain of hTRPV1 (Q8NER1 whole entry): as the sequence (Q8NER1 whole entry S512F) above, with F512S counted along it

Row | SMILES | inhibition of TRPV1 currents evoked by 2-APB (TRPV1) | activation of hTRPV1 by capsaicin (hTRPV1) | response of mutant to capsaicin (hTRPV1 S512F)
1 | CC(C)CCC[C@@H](C)[C@H]1CC[C@H]2[C@@H]3CC=C4C[C@@H](O)CC[C@]4(C)[C@H]3CC[C@]12C [CHL, cholesterol] | not inhibited | – | –
2 | COc1cc(CNC(=O)CCCC/C=C/C(C)C)ccc1O [capsaicin] | – | 80–90% | unresponsive
